# Molecular target: T1, HDAC8 Cys102Ser/Cys153Ser/Cys275Ser (Homo sapiens, UniProt Q9BY41, C102S/C153S/C275S)
# T1 construct: made in house
# T1 sequence (Q9BY41 1-377 C102S/C153S/C275S): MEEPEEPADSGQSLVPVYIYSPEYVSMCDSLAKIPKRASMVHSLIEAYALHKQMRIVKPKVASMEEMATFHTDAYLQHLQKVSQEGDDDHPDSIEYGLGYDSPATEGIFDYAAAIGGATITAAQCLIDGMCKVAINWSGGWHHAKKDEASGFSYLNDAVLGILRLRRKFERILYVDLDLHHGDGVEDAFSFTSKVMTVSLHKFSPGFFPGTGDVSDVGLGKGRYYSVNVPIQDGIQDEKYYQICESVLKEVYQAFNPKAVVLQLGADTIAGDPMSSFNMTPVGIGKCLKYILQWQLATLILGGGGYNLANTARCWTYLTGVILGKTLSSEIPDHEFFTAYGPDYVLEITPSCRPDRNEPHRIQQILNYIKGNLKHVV
# Assay: HDAC8 mutant biochemical assay
# Settings: read-out: IC50 [μM] @ 100 nM HDAC8: F Cys102Ser/Cys153Ser/Cys275Ser, 1 h preincubation
# Experimental: HDAC8 mutant variants were generated, produced, and further purified as described previously.[32] Cysteines 28 and 314 were exchanged with serine using the following primer pairs: HD8_C28S_for, […]; HD8_C28S_rev, […]; HD8_C314S_for, […]; HD8_C314S_rev, […].
# The enzyme activity assay was performed in assay buffer [25 mM Tris-HCl (pH 8.0), 50 mM NaCl, and 0.001% (v/v) Pluronic F-68] in black half-area 96-well microplates (Greiner Bio-One). For the initial screening, 10 nM HDAC8 was preincubated with the indicated compounds at 250 μM for 2 h at 30 °C. […] The reaction was initiated by the addition of 20 μM Boc-Lys(TFA)-AMC (Bachem). After substrate conversion at 30 °C for 15 min for HDAC8 and 1 h for HDAC8 mutants and HDAC4, the reaction was stopped by adding 1.67 μM suberoylanilide trifluoromethylketone (SATFMK). The deacetylated substrate was cleaved with 0.42 mg/mL trypsin to release fluorescent 7-amino-4-methylcoumarin (AMC), which was detected with a microplate reader (PHERAstar FS […]) with fluorescence excitation at 360 nm and emission at 460 nm. IC50 values were calculated by generating dose–response curves in GraphPad Prism 6 and fitting those to a four-parameter logistic model.
row,Compound,IC50 [µM]
1,C[n+]1ccccc1I [A3+],24 ± 3
2,C[n+]1ccc(I)cc1 [C3+],17 ± 1
3,C#Cc1cc[n+](C)cc1 [C6+],4.2 ± 0.3
4,C[n+]1cccnc1Cl [D1+],13 ± 3
5,C[n+]1cccnc1Br [D2+],35 ± 14
6,C[n+]1cccnc1I [D3+],16 ± 2
7,C#Cc1nccc[n+]1C [D6+],107 ± 10
8,C[n+]1cncc(Br)c1 [F2+],19 ± 4
9,C[n+]1cncc(I)c1 [F3+],15
10,C#Cc1c[n+](C)ccn1 [G6+],64 ± 16

# Source: article PMC10788917 (Journal of Medicinal Chemistry, 2023)
